Measurements taken from patent US9387230B2, “Methods to treat cancer using cyclosporine and cyclosporine derivatives” (priority 2011, dated 2016).

How the values were obtained:
[1] = tested on: MCF10A wild type (WT) and PTEN knockout (PT−/−) cells; test: crystal violet cell growth, 96 hours after treatment; type: cell-based
Protocol: MCF10A wild type (WT) and PTEN knockout (PT−/−) cells were seeded into 48-well plate with density of 4000 cells/well. The next day, the growth medium was changed to a medium containing Tacrolimus. Medium containing 0.1% DMSO was used as negative control. Ninety-six (96) hours after treatment, the cells were stained with crystal violet for cell growth. The cell growth of negative control group is set as 100%.
The next day, the growth medium was changed to a medium containing CsA (FIG. 9A) or an analog as depicted in each panel in FIG. 9B-D. Medium containing 0.1% DMSO was used as negative control. Ninety-six (96) hours after treatment, the cells were stained with crystal violet for cell growth. The cell growth of negative control group is set as 100%.
Medium containing 0.1% DMSO was used as negative control. Ninety-six (96) hours after treatment, the cells were stained with crystal violet and measured for cell growth. Cell growth of the negative control group is set as 100%.
MCF10A wild type (WT) and PTEN knockout (PT−/−) cells were seeded into 48-well plate with density of 4000 cells/well. The next day, the growth medium was changed to medium containing a compound, CsA or its analogs of Formula III-VIII. Medium containing 0.1% DMSO, was used as a negative control. Ninety six (96) hours after treatment, the cells were stained with crystal violet for cell growth. The cell growth of negative control group was set as 100%.
MCF10A wild type (WT) and PTEN knockout (PT−/−) cells were seeded into 48-well plates at a density of 4000 cells/well. […] Medium containing 0.1% DMSO was used as negative control. Ninety-six (96) hours after treatment, the cells were stained with crystal violet and measured for cell growth. Cell growth of the negative control group was set as 100% (FIG. 10A).

[2] = tested on: MDA-MB-468 cells (PT−/−); test: crystal violet cell growth, seven days after treatment; type: cell-based; settings: MDA-MB-468, seven days; FIG. 10B
Protocol: (§1) The next day, the growth medium was changed to medium containing CsA and NIM-811. Medium containing 0.1% DMSO was used as negative control. The medium was replenished once. Seven days after treatment, the cells were stained with crystal violet and measured for cell growth. Cell growth of the negative control group is set as 100%.
as §1, with “MDA-MB-468 cells (PT−/−) were seeded into 48-well plates at a density of 5000 cells/well. The next” for “The next”, “set as 100% (FIG. 10B).” for “set as 100%.”

SMILES	differential inhibition of PT−/− MCF10A cells vs. isogenic wild type cells, compared to CsA ([1]; 96 hours, FIG. 10A)	cell growth inhibition activity compared to CsA [2]	preferential killing of PTEN null cells ([1]; MCF10A WT vs PT−/−, FIG. 8)	inhibition of cancer cells ([1]; physiologic dosing, FIG. 8)
C/C=C/C[C@@H](C)[C@@H](O)[C@H]1C(=O)N[C@@H](CC)C(=O)N(C)CC(=O)N(C)[C@@H]([C@@H](C)CC)C(=O)N[C@@H](C(C)C)C(=O)N(C)[C@@H](CC(C)C)C(=O)N[C@@H](C)C(=O)N[C@H](C)C(=O)N(C)[C@@H](CC(C)C)C(=O)N(C)[C@@H](CC(C)C)C(=O)N(C)[C@@H](C(C)C)C(=O)N1C [NIM-811]	increased activity compared to CsA	better cell growth inhibition activity compared to CsA		
C=CC[C@@H]1/C=C(\C)C[C@H](C)C[C@H](OC)[C@H]2O[C@@](O)(C(=O)C(=O)N3CCCC[C@H]3C(=O)O[C@H](/C(C)=C/[C@@H]3CC[C@@H](O)[C@H](OC)C3)[C@H](C)[C@@H](O)CC1=O)[C@H](C)C[C@@H]2OC [tacrolimus]			does not preferentially kill PTEN null cells	does not inhibit cancer cells at physiologic dosing
